# Experimental data taken from the supplement of paper PMC10307832.
# Experiments:
# Assay in all cases: relative viability (nuclei count vs DMSO), 5 days (fraction); higher = more cells survive
# [1] = compound: C1CNCCC1C2=CC(=NN2)C3=CC=NC=C3 + COc1cc2c(Oc3ccc(NC(=O)C4(C(=O)Nc5ccc(F)cc5)CC4)cc3F)ccnc2cc1OCCCN1CCOCC1 [Foretinib] (partner 0.25 µM)
# Summary of the method: (§1)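 Medians of duplicate plates are given as relative viability. That measure is the nuclei count in treated wells divided by the count in vehicle wells. Counts were taken on 4× images of lung cancer cell lines in 1536-well plates, 5 days after pin-tool dosing the day after seeding with one drug alone or a fixed anchor-drug dose plus five library-drug doses (not always all listed) in √10 steps.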
# [2] = compound: C1CNCCC1C2=CC(=NN2)C3=CC=NC=C3 + C[C@]1(O)C[C@@H](c2nc(-c3ccc4ccc(-c5ccccc5)nc4c3)c3c(N)nccn32)C1 [Linsitinib] (partner 1 µM)
# Summary of the method: as §1
# [3] = compound: C1CNCCC1C2=CC(=NN2)C3=CC=NC=C3 + Cc1nc(NC(=O)N2CCC[C@H]2C(N)=O)sc1-c1ccnc(C(C)(C)C(F)(F)F)c1 [Alpelisib] (partner 2 µM)
# Summary of the method: as §1
# [4] = compound: C[C@@H](N)c1ccc(C(=O)Nc2ccnc3[nH]ccc23)cc1 + O=C(CCCCCCC(=O)Nc1ccccc1)NO [Vorinostat] (partner 1 µM)
# Summary of the method: as §1
cell line,measurement,setting,value
UMC-11,relative viability,[1]; first compound 0.08 µM,1
same,relative viability,[1]; first compound 0.8 µM,1.17
same,relative viability,[1]; first compound 2.53 µM,1.09
same,relative viability,[1]; first compound 8 µM,1.09
same,relative viability,[2]; first compound 0.08 µM,0.987
same,relative viability,[2]; first compound 0.8 µM,1.08
same,relative viability,[2]; first compound 2.53 µM,1.17
same,relative viability,[2]; first compound 8 µM,0.982
same,relative viability,[3]; first compound 0.08 µM,0.815
same,relative viability,[3]; first compound 0.8 µM,1.22
same,relative viability,[3]; first compound 2.53 µM,0.911
same,relative viability,[3]; first compound 8 µM,1.03
same,relative viability,[4]; first compound 0.04 µM,0.459
same,relative viability,[4]; first compound 0.1265 µM,0.514
same,relative viability,[4]; first compound 0.4 µM,0.515
same,relative viability,[4]; first compound 1.265 µM,0.504
same,relative viability,[4]; first compound 4 µM,0.356
